According to US20060241174A1, “Vitamin E tocotrienols inhibition of intracellularly obligate pathogen Chlamydia and methods of use” (priority 2005, published 2006):

Key:
LDL = LDL levels in hyperlipidemic patients before and after delta-tocotrienol supplementation; type: in vivo, human
Protocol: In a clinical study, buffy coats from blood samples drawn both before and after delta-tocotrienol supplementation were immunostained for detection of Chlamydia-infected cells. The samples were tested for LDL levels both before and after delta-tocotrienol supplementation.

C. trachomatis serovar K = test: Infection of delta tocotrienol-pretreated cell lines (J774A.1, MCF-7, TMX2-28, Hep-2, JY), immunofluorescence with microscopy or flow cytometry; type: cell-based, Chlamydia trachomatis; settings: 10-30 μmol/L for 6 hours prior to infection
Protocol: Delta tocotrienol is a vitamin E compound also available as dietary supplement. […] Since Chlamydia species enter cells via cholesterol-rich lipid raft domains involved in cholesterol trafficking, tocotrienols in general and hypocholesterolemic delta tocotrienol in particular will reduce infection by Chlamydia. Mouse macrophages (J774A.1), human mammary tumor cells (MCF-7, TMX2-28), human epithelial cells (Hep-2), and human B-lymphocytes (JY) were incubated with delta tocotrienol at concentrations of 10-30 μmol/L for 6 hours prior to infection by C. trachomatis serovar K, a subspecies of Chlamydia that is the primary cause of bacteria-initiated STD. Infections were detected by immunofluorescence staining followed by either microscopy or quantitative flow cytometric analysis. Infection levels in cells pretreated with delta-tocotrienol were decreased by >50%, with concomitant aberrant pathogen development observed with confocal microscopy. The number of large and small inclusions in the delta tocotrienol-versus-control cells was decreased by 3- and 2-fold, respectively. […] The impact of dietary delta tocotrienol on Chlamydia infection in hyperlipidemic patients is being examined in a clinical study. Cholesterol-suppressive delta tocotrienol may have the potential to reduce Chlamydia infection in humans.

Chlamydia = test: Chlamydia-infected human mammary tumor cells (TMX2-28) treated with delta tocotrienol; type: cell-based
Protocol: FIG. 7 illustrates Chlamydia-infected human mammary tumor cells treated with delta tocotrienol (630× magnification). Human mammary tumor cells (TMX2-28) were infected with Chlamydia for 72 hours and treated with a 15 μmol/L concentration of delta tocotrienol (FIG. 7A). Controls were left untreated (FIG. 7B).

[1] = biological target: T1, 3-hydroxy-3-methylglutaryl coenzyme A (HMG-CoA) reductase (Homo sapiens, UniProt P04035); settings: delta>gamma>beta>alpha tocotrienol (Tan, 2005); cited from earlier work
T1 sequence (P04035 1-888): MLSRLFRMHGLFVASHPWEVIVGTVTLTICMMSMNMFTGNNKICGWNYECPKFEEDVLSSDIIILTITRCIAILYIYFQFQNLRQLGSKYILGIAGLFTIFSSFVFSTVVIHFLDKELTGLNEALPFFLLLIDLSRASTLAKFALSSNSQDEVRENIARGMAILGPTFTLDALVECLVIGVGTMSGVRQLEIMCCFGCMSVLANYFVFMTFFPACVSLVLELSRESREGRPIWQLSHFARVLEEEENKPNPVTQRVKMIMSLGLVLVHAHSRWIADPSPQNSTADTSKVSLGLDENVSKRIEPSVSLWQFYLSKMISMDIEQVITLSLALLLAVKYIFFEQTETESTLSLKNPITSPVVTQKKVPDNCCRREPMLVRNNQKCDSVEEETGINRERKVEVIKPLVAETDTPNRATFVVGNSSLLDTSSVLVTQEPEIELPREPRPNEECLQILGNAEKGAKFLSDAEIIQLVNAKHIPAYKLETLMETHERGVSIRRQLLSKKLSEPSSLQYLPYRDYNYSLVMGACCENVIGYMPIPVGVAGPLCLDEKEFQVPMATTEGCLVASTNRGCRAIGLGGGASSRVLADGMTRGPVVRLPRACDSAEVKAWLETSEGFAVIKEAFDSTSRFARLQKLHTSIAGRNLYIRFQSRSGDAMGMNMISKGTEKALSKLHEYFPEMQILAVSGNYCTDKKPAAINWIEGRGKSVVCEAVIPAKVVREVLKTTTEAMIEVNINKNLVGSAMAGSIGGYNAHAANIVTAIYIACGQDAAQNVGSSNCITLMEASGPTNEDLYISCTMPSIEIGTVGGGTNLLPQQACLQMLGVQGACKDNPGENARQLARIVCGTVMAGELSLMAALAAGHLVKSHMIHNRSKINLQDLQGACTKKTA

With delta tocotrienol the “% Decrease in LDL” value (LDL; Patient 1 (Chlamydia negative before supplementation)) was 20%, the “% Decrease in LDL” value (LDL; Patient 2 (Chlamydia positive before supplementation)) was 7% and the “% Decrease in LDL” value (LDL; Patient 3 (Chlamydia strong positive before supplementation)) was 25%. For the same substance, the “decrease in number of large inclusions versus control cells” value (C. trachomatis serovar K) was 3 fold, the “decrease in number of small inclusions versus control cells” value (C. trachomatis serovar K) was 2 fold and the “decrease of infection levels in pretreated cells” value (C. trachomatis serovar K) was > 50%. For the same substance, the “apoptosis of Chlamydia-infected, tocotrienol-treated cancer cells” value (Chlamydia) was “did not appear to become apoptotic”, the “inclusion size in tocotrienol treated mammary tumor cells” value (Chlamydia; 15 μmol/L, infected 72 hours, untreated >20 μm) was 10-15 μm and the “potency of cholesterol inhibition among tocotrienol isomers” value [1] was “most potent isomer”. For the same substance, the “cell number compared to cells grown in culture medium” value (Cells in culture) was “no difference in cell number”.
